According to patent US20230250417A1, “METHODS FOR DETECTING RNA TRANSLATION” (Eclipse Bioinnovations, Inc., priority 2021, published 2023):
Entries after “also recorded” stand apart in the source; their conditions may differ.

Experiments:
gene FUS = assay: Bead barcoded multiplexed RBP/RPS2 binding, genome track view (IGV) with normalized read counts; assay type: cell-based, human; details: cells treated with 200 nM Risdiplam for 2 hours vs DMSO control; FIG. 7
Experimental: FIG. 7 depicts an IGV screenshot of the gene FUS with normalized read counts for 7 different RBPs and the translation component protein RPS2. Two conditions are shown; one DMSO control and the other cells treated with 200 nM Risdiplam. […] This example illustrates a protocol for a bead barcoded experiment for detecting RNA modifications from cells with RBPs according to an embodiment of the disclosure. The buffers described below are the same as mentioned above with respect to Example 2 unless explicitly stated otherwise. First, Trypan blue stain (Thermo Fisher Scientific, cat. #15250061) or equivalent live cell counting assay was used to valuate cell viability. Next, cell viability was reviewed to be sure it was >95% to ensure intact RNA. Cells were grown to a proper confluence, in most cases grow cells to 75% confluence. Some cells were treated with 200 nM Risdiplam for 2 hours prior to harvesting. First, resuspend anti-rabbit Dynabeads by vortexing or pipetting up and down several times. Second, transfer 500 μL of beads (enough for 20 samples) into a 1.5 mL Eppendorf tube and place tube on DynaMag-2. Third, Remove the supernatant and wash beads thrice with 500 μL PBS, resuspending beads with each wash. Fourth, remove beads from magnet, resuspend beads in 500 μL PBS, add 1.65 μL DBCO-NHS (10 mM in DMSO), and rotate tube at room temperature for 1 hour. […]

[1] = system: TOP motif containing gene, GAPDH; assay: Ribo-ABC (oligo conjugated antibody) ribosome-bound RNA read counts, genome track view; assay type: cell-based; details: ribosomal proteins RPS2, RPS3, RPS14, FIG. 2 top panel
Experimental: (§1) Three different ribosomal proteins were used RPS2, RPS3, RPS14.
(§2) This example provides a protocol for a Ribo-ABC experiment according to an embodiment of the disclosure.
(§3) First, the tissue culture plate was placed on leveled ice or on a cooling block pre-chilled to 4° C. Second, the above (plate plus ice or cooling block) was placed into the UV cross-linker. Third, the tissue culture plate lid was removed for cross-linking. Fourth, cross-link at 254-nm UV with an energy setting of 400 mJoules/cm^2. Fifth, while keeping the cells on ice, a cell scraper (Corning, cat. #CLS3010-10EA) was used to scrape the plate. Sixth, the cells were transferred to a 15 mL conical tube. Seventh, the plate was washed once with 5 mL of chilled PBS and added to the same 15 mL tube. Eight, gently resuspended until the sample was homogeneous. Ninth, the 15 mL conical tube was centrifuged at 200×g for 3 minutes at 4° C. Tenth, the sample was aspirated and discarded supernatant. Eleventh, the desired amount of cells for flash freezing was resuspended in chilled PBS (typically 10×10^6 cells per mL). Twelfth, the sample was transferred into 1.5 mL LoBind tubes Tubes (typically 1 mL of 10×10^6 cells per mL). Thirteenth, the sample was spun down at 200×g for 3 minutes at 4° C. Fourteenth, the supernatant was aspirated, and the cell pellets were frozen quickly by submerging the 1.5 mL LoBind tubes in liquid nitrogen. […]

[2] = system: non-TOP motif containing gene, PARP1; assay: as above; assay type: cell-based; details: ribosomal proteins RPS2, RPS3, RPS14, FIG. 2 bottom panel
Experimental: as §1, §2, §3

Molecule | change in binding on gene FUS (7 RBPs and RPS2) versus DMSO control (gene FUS) | change in read counts of GAPDH upon Torin treatment [1] | change in read counts of PARP1 upon Torin treatment [2]
Cc1cn2nc(-c3cc(=O)n4cc(N5CCNC6(CC6)C5)ccc4n3)cc(C)c2n1 [Risdiplam] | a change in binding across the two conditions; also recorded: a difference observed between the two conditions | – | –
Torin | – | reduced read counts | no change in read counts
